Experimental data reported in ChEMBL document CHEMBL2150847, “Scaffold hopping strategy toward original pyrazolines as selective CB₂ receptor ligands” (Eur J Med Chem, 2012).
The source made the active and inactive calls. No cut-off for these calls is given here.

Assays:
Cannabinoid receptor 2 [1] = target: T1, Cannabinoid receptor 2 (Homo sapiens, UniProt P34972); experiment: Displacement of [3H]CP55940 from human CB2 receptor expressed in CHO cell membranes after 1 hr by scintillation counting
T1 sequence (P34972 whole entry): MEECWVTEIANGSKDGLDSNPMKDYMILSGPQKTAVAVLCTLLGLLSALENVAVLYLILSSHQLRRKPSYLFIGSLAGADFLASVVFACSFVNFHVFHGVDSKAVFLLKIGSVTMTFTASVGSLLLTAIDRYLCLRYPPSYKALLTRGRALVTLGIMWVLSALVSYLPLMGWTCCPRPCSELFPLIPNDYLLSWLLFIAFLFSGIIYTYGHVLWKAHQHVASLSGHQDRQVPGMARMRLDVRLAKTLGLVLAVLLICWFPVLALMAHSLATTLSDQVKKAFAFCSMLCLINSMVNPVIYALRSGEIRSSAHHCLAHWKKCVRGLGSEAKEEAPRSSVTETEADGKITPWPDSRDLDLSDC

Homo sapiens = species: Homo sapiens; experiment: Selectivity ratio of Ki for human CB1 receptor to Ki for human CB2 receptor
Cannabinoid receptor 1 = Cannabinoid receptor 1 (Homo sapiens, UniProt P21554); experiment: Displacement of [3H]CP55940 from human CB1 receptor expressed in CHO cell membranes after 1 hr by scintillation counting
Sequence of Cannabinoid receptor 1 (P21554 whole entry): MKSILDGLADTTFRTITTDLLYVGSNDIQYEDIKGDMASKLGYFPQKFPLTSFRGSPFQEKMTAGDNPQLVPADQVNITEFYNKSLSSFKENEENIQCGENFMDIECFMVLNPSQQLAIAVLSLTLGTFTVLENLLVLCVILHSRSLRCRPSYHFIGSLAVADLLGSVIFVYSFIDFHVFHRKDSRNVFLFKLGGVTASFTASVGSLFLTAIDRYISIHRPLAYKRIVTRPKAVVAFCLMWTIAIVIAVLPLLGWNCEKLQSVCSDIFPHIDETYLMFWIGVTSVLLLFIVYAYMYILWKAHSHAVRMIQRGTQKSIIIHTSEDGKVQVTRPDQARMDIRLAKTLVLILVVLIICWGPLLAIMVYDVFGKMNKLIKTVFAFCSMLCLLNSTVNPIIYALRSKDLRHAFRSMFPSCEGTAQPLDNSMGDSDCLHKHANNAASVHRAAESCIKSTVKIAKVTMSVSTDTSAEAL

Cannabinoid receptor 2 [2] = target: T1, Cannabinoid receptor 2; experiment: Agonist activity at human CB2 receptor expressed in CHO cell membranes after 1 hr by [35S]GTPgammaS binding assay; format: functional
Cannabinoid receptor 2 [3] = target: T1, Cannabinoid receptor 2; experiment: Agonist activity at human CB2 receptor expressed in CHO cell membranes after 1 hr by [35S]GTPgammaS binding assay relative to baseline; format: functional
Cannabinoid receptor 2 [4] = target: T1, Cannabinoid receptor 2; experiment: Antagonist activity at human CB2 receptor expressed in CHO cell membranes after 1 hr by [35S]GTPgammaS binding assay; format: functional

Q: For `O=C(NC1CCCCC1)N1CC(Cc2ccccc2)C(c2ccccc2)=N1` (configuration not stated), which Ki (Cannabinoid receptor 2 [1]) is on record?
A: 0.504 µM

Q: What about the Ratio Ki (Homo sapiens) of the same compound?
A: > 6

Q: And the Ki (Cannabinoid receptor 1)?
A: > 3 µM

Q: And the EC50 (Cannabinoid receptor 2 [2])?
A: 0.297 µM

Q: And the Emax (Cannabinoid receptor 2 [3])?
A: 136%

Q: `CC(=O)N1CC(Cc2ccccc2)C(c2ccccc2)=N1` (configuration not stated) was tested. Which Ki (Cannabinoid receptor 2 [1]) did it give?
A: > 3 µM

Q: And the Ki (Cannabinoid receptor 1)?
A: > 3 µM

Q: `Cc1ccc(CC2CN(C(=O)NC3CCCCC3)N=C2c2ccc(Cl)c(C)c2)cc1` (configuration not stated) was tested. Which Ki (Cannabinoid receptor 2 [1]) did it give?
A: 0.385 µM

Q: And the Ratio Ki (Homo sapiens)?
A: > 8

Q: What about the Ki (Cannabinoid receptor 1) of the same compound?
A: > 3 µM

Q: What about the EC50 (Cannabinoid receptor 2 [2]) of the same compound?
A: 0.371 µM

Q: And the Emax (Cannabinoid receptor 2 [3])?
A: 187%

Q: What does the source list for `O=C(NC1CCCCC1)N1CC(Cc2ccccc2)C(c2ccc(Cl)cc2)=N1` (configuration not stated)?
A: Ki (Cannabinoid receptor 2 [1]): > 3 µM; Ki (Cannabinoid receptor 1): > 3 µM

Q: `Cc1ccc(CC2CN(C(=O)Nc3ccccc3)N=C2c2ccc(Cl)c(C)c2)cc1` (configuration not stated) was tested. Which Ki (Cannabinoid receptor 2 [1]) did it give?
A: > 1 µM

Q: And the Ki (Cannabinoid receptor 1)?
A: > 3 µM

Q: Which Ki (Cannabinoid receptor 2 [1]) does the source give for `O=C(Nc1ccccc1)N1CC(Cc2ccccc2)C(c2ccc(Cl)cc2)=N1` (configuration not stated) here?
A: > 3 µM

Q: What about the Ki (Cannabinoid receptor 1) of the same compound?
A: > 3 µM

Q: How did the Ki (Cannabinoid receptor 2 [1]) turn out when `Cc1cc(C2=NN(C(=O)NC3C4(C)CCC(C4)C3(C)C)CC2Cc2ccccc2)ccc1Cl` (configuration not stated) was run?
A: 0.689 µM

Q: And the Ratio Ki (Homo sapiens)?
A: > 4

Q: What about the Ki (Cannabinoid receptor 1) of the same compound?
A: > 1 µM

Q: What about the EC50 (Cannabinoid receptor 2 [2]) of the same compound?
A: 0.749 µM

Q: What about the Emax (Cannabinoid receptor 2 [3]) of the same compound?
A: 183%

Q: Which Ki (Cannabinoid receptor 2 [1]) does the source give for `Cc1cccc(C2=NN(C(=O)NC3CCCCC3)CC2Cc2ccccc2)c1` (configuration not stated) here?
A: > 3 µM

Q: What about the Ki (Cannabinoid receptor 1) of the same compound?
A: > 3 µM

Q: How did the Ki (Cannabinoid receptor 2 [1]) turn out when `Cc1cc(C2=NN(C(=O)NC3CCCCC3)CC2C2CCCC2)ccc1Cl` (configuration not stated) was run?
A: 3.64 µM

Q: And the Ratio Ki (Homo sapiens)?
A: 1.2

Q: What about the Ki (Cannabinoid receptor 1) of the same compound?
A: > 3 µM

Q: What about the Activity (Cannabinoid receptor 2 [4]) of the same compound?
A: Active

Q: Which results are given for `Cc1ccc(CC2CN(C(=O)NC3C4(C)CCC(C4)C3(C)C)N=C2c2ccc(Cl)c(C)c2)cc1` (configuration not stated)?
A: Ki (Cannabinoid receptor 2 [1]): 0.251 µM; Ratio Ki (Homo sapiens): > 4; Ki (Cannabinoid receptor 1): > 1 µM; EC50 (Cannabinoid receptor 2 [2]): 0.191 µM; Emax (Cannabinoid receptor 2 [3]): 163%

Q: What does the source list for `O=C(Nc1ccccc1)N1CC(Cc2ccccc2)C(c2ccccc2)=N1` (configuration not stated)?
A: Ki (Cannabinoid receptor 2 [1]): > 3 µM; Ki (Cannabinoid receptor 1): > 3 µM

Q: Which results are given for `Cc1cccc(C2=NN(C(=O)Nc3ccccc3)CC2Cc2ccccc2)c1` (configuration not stated)?
A: Ki (Cannabinoid receptor 2 [1]): > 3 µM; Ki (Cannabinoid receptor 1): > 3 µM

Q: Which Ki (Cannabinoid receptor 2 [1]) does the source give for `Cc1cc(C2=NN(C(=O)Nc3ccccc3)CC2Cc2ccccc2)ccc1Cl` (configuration not stated) here?
A: > 3 µM

Q: And the Ki (Cannabinoid receptor 1)?
A: > 3 µM

Q: How did the Ki (Cannabinoid receptor 2 [1]) turn out when `Cc1cc(C2=NN(C(=O)NC3CCCCC3)CC2Cc2ccccc2)ccc1Cl` (configuration not stated) was run?
A: > 1 µM

Q: What about the Ki (Cannabinoid receptor 1) of the same compound?
A: > 3 µM
